Experimental data published in patent US12221494B2, “Short synthetic peptides and their uses for treating retinal degenerative diseases and/or tissue injuries” (MacKay Memorial Hospital, priority 2019, dated 2025).

System: Sprague-Dawley rats, retinal ischemia/reperfusion (I/R) injury
Assay: TUNEL staining of I/R-injured rat retina (20 h)
Type: in vivo
Description: Experimental procedures were approved by the Mackay Memorial Hospital Review Board (Taiwan, R.O.C.). All surgeries were performed under aseptic conditions. Adult 10-week-old male Sprague-Dawley rats (initial body weight=312±11 g) were anesthetized by an intraperitoneal injection of xylazine (10 mg/kg). Peptide was dissolved in 0.85% normal saline to 1 mM and delivered by the subconjunctival injection of 100 μL peptide through a 31-Gneedle with a micro-syringe before the induction of I/R. Normal saline was as a vehicle control. Rat I/R was performed after peptide or vehicle injection for 4 h. Pupils were dilated with 0.5% tropicamide and 0.5% phenylephrine. Body temperature was maintained at 37° C. using a heating blanket After dilation of the pupil, the anterior chamber of the right eye was cannulated with a 27-gauge needle connected to a physiological saline reservoir. The intraocular pressure (IOP) was raised to 110 mmHg by keeping the reservoir at 150 cm above the eye, and retinal ischemia was confirmed by observing whitening of the iris and the loss of the red reflex of the retina. After 90 min of ischemia, the cannulating needle was withdrawn and the IOP was returned to normal pressure, resulting in recovery of the blood supply from the retinal artery and reperfusion injury induced. The reperfusion was evident by the return of the red reflex. Corneal analgesia was achieved using 1 or 2 drops of 0.4% oxybuprocaine hydrochloride, and Ofloxacin ophthalmic gel (0.3%) was applied topically to the eye before and after the procedure. Only the right eye was used in all experiments. A sham procedure was performed at left eye served as an intra-animal control.
After I/R for 20 h, rats (n=6 in each group) were euthanized by an overdose of pentobarbital. Enucleated eyeballs were fixed in 4% PFA for 24 h at 4° C. Fixed retinal tissues were embedded in paraffin. To identify apoptosis of retinal cells, 5 μm sections thick cut through the optic disc, de-paraffinized, rehydrated, incubatedwith 20 μg/mL proteinase K for 10 min, and immunofluorescence staining of apoptotic cells was performed using a terminal deoxynucleotidyl transferase(TdT)-mediated dUTP nick-end labeling (TUNEL)-based kit (Roche Molecular Biochemicals, Indianapolis, IN) according to the manufacturer's instructions. Nuclei were located by counterstaining with Hoechst 33258 for 7 min Sections were observed under an epifluorescence microscope (Zeiss Axioplan 2 imaging; Zeiss, Oberkochen, Germany) equipped with a charge-coupled device (CCD) camera (Zeiss AxioCam HRm, Zeiss) (×400, 6 fields/sample), and quantification was performed using Axiovert software (Zeiss AxioVision Release 4.8.2, Zeiss). Three sections per eye were averaged and the mean of six eyes was recorded as the representative value for each group.
In this example, the neuroprotective effect of the 6-mer variant peptides on neural retina cells and retinal capillary system was investigated using a rat model of I/R injury described in the “Material and Methods” section. Briefly, 6-mer variant peptide (1 mM, 120 μl) was injected into the subconjunctival space of Sprague-Dawley rats for 4 h before the induction of I/R. Then, I/R injury was induced in rat retinas by increasing the intraocular pressure (IOP) in the eye to 110 mmHg for 90 min, followed by 20 h of reperfusion. Subsequently, the level of retinal cell apoptosis was evaluated using TUNEL staining. In addition, the retinal morphology was analyzed with H&E staining 14 days after the I/R injury. Results are summarized in FIGS. 6 to 10, and Tables 6 to 9.

Substance: NH2-(D-Ser)-Leu-Gly-Ala-Glu-Gln-COOH (SLGAEQ; HELM PEPTIDE1{[dS].L.G.A.E.Q}$$$$V2.0; SMILES CC(C)C[C@H](NC(=O)[C@H](N)CO)C(=O)NCC(=O)N[C@@H](C)C(=O)N[C@@H](CCC(=O)O)C(=O)N[C@@H](CCC(N)=O)C(=O)O) [6-mer dS]
- Number of TUNEL-positive cells in retina (subconjunctival injection 1 mM 4 h before I/R, 20 hours after I/R injury, Vehicle + I/R 27.2 ± 2.7): 7.8 ± 1.5 /200 μm
- I/R-induced retinal cell apoptosis (TUNEL staining), in words (subconjunctival injection prior to I/R, 20 h reperfusion): only smaller numbers of green fluorescent nuclei
